Active and inactive are the calls of the source. The rule behind the calls is not given here.
Assays:
Glucocorticoid receptor [1] = biological target: T1, Glucocorticoid receptor (Homo sapiens, UniProt P04150)
T1 sequence (P04150 whole entry): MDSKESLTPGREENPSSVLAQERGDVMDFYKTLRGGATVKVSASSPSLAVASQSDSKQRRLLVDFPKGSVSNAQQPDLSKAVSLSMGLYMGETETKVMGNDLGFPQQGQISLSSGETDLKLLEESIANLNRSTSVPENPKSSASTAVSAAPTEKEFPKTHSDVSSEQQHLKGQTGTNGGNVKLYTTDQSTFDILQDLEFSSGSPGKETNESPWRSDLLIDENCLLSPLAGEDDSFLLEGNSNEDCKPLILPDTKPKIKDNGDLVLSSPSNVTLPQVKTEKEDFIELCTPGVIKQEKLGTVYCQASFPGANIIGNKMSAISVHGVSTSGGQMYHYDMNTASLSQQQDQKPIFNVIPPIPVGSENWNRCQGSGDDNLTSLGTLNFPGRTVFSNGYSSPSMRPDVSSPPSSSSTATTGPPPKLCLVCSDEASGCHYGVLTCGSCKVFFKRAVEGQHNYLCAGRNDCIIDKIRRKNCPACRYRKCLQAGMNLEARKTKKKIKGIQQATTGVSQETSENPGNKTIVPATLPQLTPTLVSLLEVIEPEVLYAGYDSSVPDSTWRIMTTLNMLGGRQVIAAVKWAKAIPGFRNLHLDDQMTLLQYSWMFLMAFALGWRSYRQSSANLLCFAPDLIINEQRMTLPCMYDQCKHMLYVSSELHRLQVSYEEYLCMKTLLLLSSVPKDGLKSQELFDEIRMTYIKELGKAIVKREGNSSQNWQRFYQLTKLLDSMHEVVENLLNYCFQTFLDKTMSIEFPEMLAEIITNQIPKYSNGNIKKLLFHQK

Glucocorticoid receptor [2] = biological target: T1, Glucocorticoid receptor; remark: listed apart in the source
Description: Agonist activity at GR assessed as NF-kappaB-mediated transrepression of secreted placental alkaline phosphatase gene in human A549 cells

Glucocorticoid receptor [3] = biological target: T1, Glucocorticoid receptor; remark: listed apart in the source
Glucocorticoid receptor [4] = biological target: T1, Glucocorticoid receptor; remark: listed apart in the source
Mus musculus = assay: Anti-inflammatory activity against oxazolone-induced ear skin delayed types hypersensitivity model in topically dosed BALB/c mouse; format: functional
[5] = biological target: T2, Glucocorticoid receptor (Homo sapiens) (UniProt P04150); assay: Selectivity for MMTV transactivation assay over NF-kappaB transrepression assay for GR agonism in A549 cells; format: functional, cell-based
T2 sequence (whole entry): T1 sequence (P04150 whole entry)

[6] = biological target: Estrogen receptor (Homo sapiens) (UniProt Q92731+P03372); assay: Activity at ER; format: protein assay
Homo sapiens [7] = species on record: Homo sapiens; assay: Selectivity for GR over AR by binding assay
Homo sapiens [8] = species on record: Homo sapiens; assay: Selectivity for GR over AR by functional assay
Homo sapiens [9] = species on record: Homo sapiens; assay: Selectivity for GR in NF-kappaB transrepression assay over MR antagonism; format: functional
Homo sapiens [10] = species on record: Homo sapiens; assay: Selectivity for GR over PR by binding assay
Homo sapiens [11] = species on record: Homo sapiens; assay: Selectivity for GR over PR by functional assay

Row | Compound | IC50 (Glucocorticoid receptor [1]) [nM] | IC50 (Glucocorticoid receptor [2]) [nM] | IC50 (Glucocorticoid receptor [3]) [nM] | also measured
1 | Cc1noc(=O)c2ccc(NC(=O)C(O)(CC3(C(C)(C)C)CCCc4ccccc43)C(F)(F)F)cc12 (centres undefined) | 11.5 | > 10000 | 776 | –
2 | CCC1(CC(O)(C(=O)Nc2ccc3c(=O)onc(C)c3c2)C(F)(F)F)CCOc2ccccc21 (stereo in doubt; 38) | 11.7 | > 10000 | – | –
3 | Cc1noc(=O)c2ccc(NC(=O)C(O)(CC3(CC(C)C)CCCc4ccccc43)C(F)(F)F)cc12 (centres undefined) | – | – | – | EC50 (Glucocorticoid receptor [4]): > 1000 nM
4 | Cc1noc(=O)c2ccc(NC(=O)C(O)(CC3CCCc4c(Br)cccc43)C(F)(F)F)cc12 (stereo in doubt; 23a) | 15.8 | – | 794 | –
5 | Cc1noc(=O)c2ccc(NC(=O)C(O)(CC3CCCc4c3cccc4[N+](=O)[O-])C(F)(F)F)cc12 (centres undefined) | 12.6 | > 1000 | – | –
6 | CCC1(CC(O)(C(=O)Nc2ccc3c(=O)onc(C)c3c2)C(F)(F)F)CCCCc2ccccc21 (centres undefined) | 10 | 7.94 | – | EC50 (Glucocorticoid receptor [4]): > 10000 nM
7 | CCC1(CC(O)(C(=O)Nc2ccc3c(=O)onc(C)c3c2)C(F)(F)F)CCOc2ccccc21 (stereo in doubt; 37) | 16.6 | – | – | –
8 | CCC(CC)C1(CC(O)(C(=O)Nc2ccc3c(=O)onc(C)c3c2)C(F)(F)F)CCCc2ccccc21 (centres undefined) | 5.25 | 1.2 | 66.1 | ED50 (Mus musculus): 0.35 µg; Efficacy [5]: 50%; Activity [6]: inactive; Selectivity ratio (Homo sapiens [7]): > 50; Selectivity ratio (Homo sapiens [8]): > 50; Selectivity ratio (Homo sapiens [9]): > 100; Selectivity ratio (Homo sapiens [10]): 10; Selectivity ratio (Homo sapiens [11]): 10; EC50 (Glucocorticoid receptor [4]): 6.31 nM
9 | CCC1(CC(O)(C(=O)Nc2ccc3c(=O)onc(C)c3c2)C(F)(F)F)CCCc2ccc([N+](=O)[O-])cc21 (centres undefined) | 6.31 | > 10000 | 316 | –
10 | Cc1noc(=O)c2ccc(NC(=O)C(O)(CC3CCCc4c(Br)cccc43)C(F)(F)F)cc12 (stereo in doubt; 23b) | 39.8 | – | – | –
11 | CCCC1(CC(O)(C(=O)Nc2ccc3c(=O)onc(C)c3c2)C(F)(F)F)CCCc2ccccc21 (centres undefined) | 5.62 | 4.68 | 25.1 | Efficacy [5]: 67%; EC50 (Glucocorticoid receptor [4]): 20 nM
12 | Cc1noc(=O)c2ccc(NC(=O)C(O)(CC3(C)CCCc4ccccc43)C(F)(F)F)cc12 (stereo in doubt; 35c) | 251 | > 10000 | – | –
13 | Cc1noc(=O)c2ccc(NC(=O)C(O)(CC3CCCc4c(N)cccc43)C(F)(F)F)cc12 (centres undefined) | 25.1 | > 1000 | 2000 | –
14 | Cc1cccc2c1CCCC2CC(O)(C(=O)Nc1ccc2c(=O)onc(C)c2c1)C(F)(F)F (stereo in doubt; 19a) | 20 | – | 794 | –
15 | COc1cccc2c1CCCC2CC(O)(C(=O)Nc1ccc2c(=O)onc(C)c2c1)C(F)(F)F (centres undefined) | 12.6 | > 1000 | – | –
16 | CCC1(CC(O)(C(=O)Nc2ccc3c(=O)onc(C)c3c2)C(F)(F)F)CCCc2cc([N+](=O)[O-])ccc21 (centres undefined) | 7.94 | > 10000 | 794 | –
17 | CCC1(CC(O)(C(=O)Nc2ccc3c(=O)onc(C)c3c2)C(F)(F)F)CCCc2c([N+](=O)[O-])cccc21 (centres undefined) | 5.01 | > 10000 | 251 | –
18 | Cc1noc(=O)c2ccc(NC(=O)C(O)(CC3(C(C)C)CCCc4ccccc43)C(F)(F)F)cc12 (centres undefined) | 4.79 | 2.95 | 129 | Efficacy [5]: 34%; EC50 (Glucocorticoid receptor [4]): 18.6 nM
19 | Cc1noc(=O)c2ccc(NC(=O)C(O)(CC3CCCc4ccc(F)cc43)C(F)(F)F)cc12 (centres undefined) | 15.8 | > 1000 | – | –
20 | Cc1noc(=O)c2ccc(NC(=O)C(O)(CC3(C)CCCc4ccccc43)C(F)(F)F)cc12 (stereo in doubt; 35d) | 10 | 20 | 398 | EC50 (Glucocorticoid receptor [4]): > 10000 nM
21 | Cc1noc(=O)c2ccc(NC(=O)C(O)(CC3CCCc4ccc([N+](=O)[O-])cc43)C(F)(F)F)cc12 (centres undefined) | 20 | > 1000 | – | –
22 | CCC1(CC(O)(C(=O)Nc2ccc3c(=O)onc(C)c3c2)C(F)(F)F)CCCc2ccccc21 (centres undefined) | 6.17 | 5.01 | 200 | ED50 (Mus musculus): 5 µg; EC50 (Glucocorticoid receptor [4]): 9.12 nM
23 | Cc1noc(=O)c2ccc(NC(=O)C(O)(CC3CCCc4ccccc43)C(F)(F)F)cc12 (centres undefined) | 7.94 | > 1000 | – | –
24 | Cc1noc(=O)c2ccc(NC(=O)C(O)(CC3CCCc4c(Cl)cccc43)C(F)(F)F)cc12 (stereo in doubt; 20b) | 5.01 | > 1000 | 398 | –
25 | Cc1noc(=O)c2ccc(NC(=O)C(O)(CC3(C)CCCc4ccccc43)C(F)(F)F)cc12 (stereo in doubt; 35a) | 316 | > 10000 | – | –
26 | Cc1noc(=O)c2ccc(NC(=O)C(O)(CC3CCCc4c(C#N)cccc43)C(F)(F)F)cc12 (centres undefined) | 15.8 | > 1000 | – | –
27 | Cc1cccc2c1CCCC2CC(O)(C(=O)Nc1ccc2c(=O)onc(C)c2c1)C(F)(F)F (stereo in doubt; 19b) | 3.16 | > 1000 | 200 | –
28 | Cc1noc(=O)c2ccc(NC(=O)[C@](O)(C[C@@]3(C4CCCC4)CCCc4ccccc43)C(F)(F)F)cc12 | 8.13 | 2.04 | 53.7 | ED50 (Mus musculus): 0.05 µg; Activity [6]: inactive; Selectivity ratio (Homo sapiens [7]): > 50; Selectivity ratio (Homo sapiens [8]): > 50; Selectivity ratio (Homo sapiens [9]): > 100; EC50 (Glucocorticoid receptor [4]): 17.8 nM
29 | C[C@@H]1C[C@H]2[C@@H]3CCC4=CC(=O)C=C[C@]4(C)[C@@]3(F)[C@@H](O)C[C@]2(C)[C@@]1(O)C(=O)CO [DEXAMETHASONE] | – | – | – | ED50 (Mus musculus): 0.27 µg
30 | Cc1noc(=O)c2ccc(NC(=O)C(O)(CC3(c4ccccc4)CCCc4ccccc43)C(F)(F)F)cc12 (centres undefined) | 14.5 | > 10000 | 1380 | –

Second part, led by results:

Row | IC50 (Glucocorticoid receptor [1]) [nM] | IC50 (Glucocorticoid receptor [2]) [nM] | IC50 (Glucocorticoid receptor [3]) [nM] | Compound | also measured
31 | 31.6 | > 1000 | – | Cc1noc(=O)c2ccc(NC(=O)C(O)(CC3CCCc4cccc(F)c43)C(F)(F)F)cc12 (centres undefined) | –
32 | 9.55 | 4.9 | 166 | Cc1noc(=O)c2ccc(NC(=O)C(O)(CC3(C4CCC4)CCCc4ccccc43)C(F)(F)F)cc12 (centres undefined) | EC50 (Glucocorticoid receptor [4]): 17.4 nM
33 | 7.94 | 1260 | – | Cc1noc(=O)c2ccc(NC(=O)C(O)(CC3(C)CCCc4ccccc43)C(F)(F)F)cc12 (stereo in doubt; 35b) | –
34 | 15.8 | > 1000 | 501 | Cc1noc(=O)c2ccc(NC(=O)C(O)(CC3CCCc4c(F)cccc43)C(F)(F)F)cc12 (centres undefined) | –
35 | 12.6 | > 1000 | – | Cc1noc(=O)c2ccc(NC(=O)C(O)(CC3CCCc4cc(F)ccc43)C(F)(F)F)cc12 (centres undefined) | –
36 | 3.09 | 6.61 | – | CCCCC1(CC(O)(C(=O)Nc2ccc3c(=O)onc(C)c3c2)C(F)(F)F)CCCc2ccccc21 (centres undefined) | EC50 (Glucocorticoid receptor [4]): > 1000 nM
37 | 631 | > 1000 | – | Cc1noc(=O)c2ccc(NC(=O)C(O)(CC3CCCc4c(Br)cccc43)C(F)(F)F)cc12 (stereo in doubt; 23f) | –
38 | 15.8 | – | – | Cc1noc(=O)c2ccc(NC(=O)C(O)(CC3CCCc4c(Cl)cccc43)C(F)(F)F)cc12 (stereo in doubt; 20a) | –
39 | 25.1 | – | – | Cc1noc(=O)c2ccc(NC(=O)C(O)(CC3CCCc4c(Br)cccc43)C(F)(F)F)cc12 (stereo in doubt; 23e) | –
40 | 126 | > 1000 | – | Cc1noc(=O)c2ccc(NC(=O)C(O)(CC3CCCc4cc([N+](=O)[O-])ccc43)C(F)(F)F)cc12 (centres undefined) | –
41 | 8.51 | 3.31 | 200 | Cc1noc(=O)c2ccc(NC(=O)C(O)(CC3(C4CCCCC4)CCCc4ccccc43)C(F)(F)F)cc12 (centres undefined) | EC50 (Glucocorticoid receptor [4]): 20.9 nM
42 | 6.31 | – | – | Cc1noc(=O)c2ccc(NC(=O)C(O)(CC3CCCc4c(Br)cccc43)C(F)(F)F)cc12 (stereo in doubt; 23c) | –
43 | 4.68 | 9.55 | 204 | Cc1noc(=O)c2ccc(NC(=O)C(O)(CC3(C4CC4)CCCc4ccccc43)C(F)(F)F)cc12 (centres undefined) | EC50 (Glucocorticoid receptor [4]): 39.8 nM

— ChEMBL document CHEMBL1138886, “Dissociated nonsteroidal glucocorticoid receptor modulators; discovery of the agonist trigger in a tetrahydronaphthalene-benzoxazine series” (J Med Chem, 2006)
